ChEMBL document CHEMBL1201862, “PubChem BioAssay data set” (2004)
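Protocol summary: plate cells (96-well), add compound at 5 concentrations, incubate 48 h, interpolate endpoints linearly. GI50 is the concentration that inhibits growth by half.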 Active and inactive are the calls of the source. Cut-off read from the data, not from the text of the source: active = GI50 up to about 1.1 µM and inactive = higher.

How the values were obtained:
Test in all cases: growth of human tumour cells (NCI), 48 h
UACC-62 = tested on: UACC-62
MDA-MB-435 = tested on: MDA-MB-435
M14 = tested on: M14
CCRF-CEM = tested on: CCRF-CEM
HCC 2998 = tested on: HCC 2998
NCI-H23 = tested on: NCI-H23
HCT-116 = tested on: HCT-116
SNB-19 = tested on: SNB-19
NCI-H460 = tested on: NCI-H460
MDA-N = tested on: MDA-N
IGROV-1 = tested on: IGROV-1
MOLT-4 = tested on: MOLT-4
SF-295 = tested on: SF-295
ACHN = tested on: ACHN
OVCAR-5 = tested on: OVCAR-5
RPMI-8226 = tested on: RPMI-8226
SF-539 = tested on: SF-539
HL-60 = tested on: HL-60
MDA-MB-231 = tested on: MDA-MB-231

Structure (SMILES) | GI50 (UACC-62) | GI50 (MDA-MB-435) | GI50 (M14) | GI50 (CCRF-CEM) | GI50 (HCC 2998) | GI50 (NCI-H23) | GI50 (HCT-116) | GI50 (SNB-19) | GI50 (NCI-H460) | GI50 (MDA-N) | GI50 (IGROV-1) | GI50 (MOLT-4) | GI50 (SF-295) | GI50 (ACHN) | GI50 (OVCAR-5) | GI50 (RPMI-8226) | GI50 (SF-539) | GI50 (HL-60) | GI50 (MDA-MB-231)
Cc1cccc(Nc2cn(CCOc3ccccc3)c(=O)n(CCOc3ccccc3)c2=O)c1 | > 100 µM (inactive) | > 100 µM (inactive) | > 100 µM (inactive) | > 100 µM (inactive) | > 100 µM (inactive) | > 100 µM (inactive) | > 100 µM (inactive) | > 100 µM (inactive) | > 100 µM (inactive) | > 100 µM (inactive) | 23.3 µM (inactive) | > 100 µM (inactive) | > 100 µM (inactive) | > 100 µM (inactive) | > 100 µM (inactive) | 67.5 µM (inactive) | – | – | –
CC(C)=CCC/C(C)=C/COC(C)(C)C1=CCC(C)CC1.CC(C)=CCC/C(C)=C/COC1CC(C)CCC1=C(C)C (stereo not drawn) | > 100 µM (inactive) | > 100 µM (inactive) | > 100 µM (inactive) | – | > 100 µM (inactive) | > 100 µM (inactive) | > 100 µM (inactive) | > 100 µM (inactive) | > 100 µM (inactive) | > 100 µM (inactive) | > 100 µM (inactive) | 18.2 µM (inactive) | > 100 µM (inactive) | > 100 µM (inactive) | > 100 µM (inactive) | 36.7 µM (inactive) | 6.07 µM (inactive) | 22 µM (inactive) | –
CCCCCCCCCCC(=O)CCCCCCC(=O)O | 17.9 µM (inactive) | – | 20.5 µM (inactive) | 19.5 µM (inactive) | 17.1 µM (inactive) | 30.1 µM (inactive) | 13.8 µM (inactive) | 42.1 µM (inactive) | 16.5 µM (inactive) | – | 19.2 µM (inactive) | 15.1 µM (inactive) | 21.5 µM (inactive) | 21.5 µM (inactive) | 16.3 µM (inactive) | 13.4 µM (inactive) | 18.1 µM (inactive) | 4.23 µM (inactive) | –
COc1cc([C@@H]2c3cc4c(cc3[C@@H](NC(=O)c3ccc(OC(C)=O)cc3)C3COC(=O)[C@@H]32)OCO4)cc(OC)c1O (stereo partly drawn) | 0.547 µM (active) | – | 2.56 µM (inactive) | 0.213 µM (active) | 3.27 µM (inactive) | 0.9 µM (active) | 2.61 µM (inactive) | 2.16 µM (inactive) | 0.03 µM (active) | – | 0.258 µM (active) | 0.0298 µM (active) | 2.24 µM (inactive) | 0.689 µM (active) | 4.36 µM (inactive) | 1.32 µM (inactive) | 0.406 µM (active) | 0.153 µM (active) | –
Cc1c2ccnc(O)c2cc2c(=O)c3cnccc3[nH]c12 | > 100 µM (inactive) | – | > 100 µM (inactive) | > 100 µM (inactive) | > 100 µM (inactive) | > 100 µM (inactive) | > 100 µM (inactive) | > 100 µM (inactive) | > 100 µM (inactive) | – | > 100 µM (inactive) | > 100 µM (inactive) | > 100 µM (inactive) | > 100 µM (inactive) | > 100 µM (inactive) | > 100 µM (inactive) | – | > 100 µM (inactive) | –
COc1nc2c(c(=O)[nH]1)N=C(c1ccccc1)CC(c1ccccc1)N2 (stereo not drawn) | 44.7 µM (inactive) | 59.7 µM (inactive) | 34.3 µM (inactive) | 36.4 µM (inactive) | 54.5 µM (inactive) | 74.3 µM (inactive) | 33.8 µM (inactive) | > 100 µM (inactive) | 35.6 µM (inactive) | – | 61.4 µM (inactive) | 31.3 µM (inactive) | 49.1 µM (inactive) | 30.3 µM (inactive) | > 100 µM (inactive) | 27.2 µM (inactive) | 48.1 µM (inactive) | > 10 µM (inactive) | 33 µM (inactive)
CCC1CNC(=O)CC1CC(=O)OC (stereo not drawn) | > 100 µM (inactive) | – | > 100 µM (inactive) | – | > 100 µM (inactive) | > 100 µM (inactive) | > 100 µM (inactive) | > 100 µM (inactive) | – | – | > 100 µM (inactive) | > 100 µM (inactive) | – | > 100 µM (inactive) | > 100 µM (inactive) | – | – | > 100 µM (inactive) | –
Cc1c(/C=C2\CC/C(=C\c3[nH]c(C(=O)OC(C)(C)C)c(C)c3C)C2=O)[nH]c(C(=O)OC(C)(C)C)c1C | > 100 µM (inactive) | – | > 100 µM (inactive) | > 100 µM (inactive) | > 100 µM (inactive) | > 100 µM (inactive) | > 100 µM (inactive) | > 100 µM (inactive) | > 100 µM (inactive) | – | > 100 µM (inactive) | > 100 µM (inactive) | > 100 µM (inactive) | – | > 100 µM (inactive) | > 100 µM (inactive) | > 100 µM (inactive) | > 100 µM (inactive) | –
COc1cc(CO)cc2c1[nH]c1ccccc12 [KOENOLINE] | > 25 µM (inactive) | – | > 25 µM (inactive) | > 25 µM (inactive) | > 25 µM (inactive) | – | > 25 µM (inactive) | > 25 µM (inactive) | 24.4 µM (inactive) | – | > 25 µM (inactive) | > 25 µM (inactive) | – | > 25 µM (inactive) | 20.8 µM (inactive) | > 25 µM (inactive) | > 25 µM (inactive) | > 25 µM (inactive) | –
